Literature values, collected in patent US8173570B2, “Hydroconversion processes employing multi-metallic catalysts and method for making thereof” (Chevron U.S.A. Inc., priority 2007, dated 2012).

Test system: rats
Settings: acute toxicity, as single oral dose to rats (definition b56-b57)

In the case of O=CC(=O)O [glyoxylic], the LD50 is listed as 3000 mg/kg.
